Ki and IC50 data for eight molecules are collected here from patent US20190047966A1, “NOVEL COMPOUND AND PHARMACOLOGICALLY ACCEPTABLE SALT THEREOF” (MEIJI SEIKA PHARMA CO., LTD., priority 2016, published 2019).

Usually IC50 stands for the midpoint of a concentration-inhibition curve.

For assay [1], the target named is T1, human histamine H1 receptor (Homo sapiens, UniProt P35367). The assay can be described thus: Evaluation of Human H1 Receptor Affinity ([3H]pyrilamine binding). Further details: purchased PerkinElmer Inc; host or cells: CHO-K1. As to conditions: inhibition constant Ki, CHO-K1 membrane preparation. A digest of the protocol:
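Ki values are Cheng-Prusoff conversions of IC50 (Kd 1.1 nM) from radioligand displacement of 1.2 nM [3H]pyrilamine, with 1.0 μM pyrilamine defining nonspecific binding.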

Assay [2] addresses T2, human histamine H4 receptor (Homo sapiens, UniProt Q9H3N8).
T2 construct: purchased PerkinElmer Inc; host or cells: CHO-K1
The assay can be described thus: Evaluation of Human H4 Receptor Affinity ([3H]histamine binding). As to conditions: inhibition constant Ki, CHO-K1 membrane preparation, read-out: Evaluation of H4 Receptor Affinity. A digest of the protocol: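 Radioligand displacement: compound competes with 8.2 nM [3H]histamine at recombinant human H4 receptor in CHO-K1 membranes (Tris-HCl 50 mM pH 7.4, EDTA 1.25 mM; 25 °C, 90 min), with filter-bound radioactivity counted. IC50 was converted to Ki via Cheng-Prusoff (Kd 5.7 nM); 1.0 μM histamine set nonspecific binding.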

The target in assay [3] is T1, human histamine H1 receptor. The assay can be described thus: Evaluation of Human H1 Receptor Function (GeneBLAzer H1-NFAT-bla HEK 293T cells). It counts as cell-based. To be noted: histamine 30 nM, read-out: Evaluation of H1 Receptor Function (IC50 value, antagonistic effect). As to the method: Test Example 3: Evaluation of Human H1 Receptor Function
The antagonistic effect was evaluated by the method described below. GeneBLAzer® H1-NFAT-bla HEK 293T-cells (Invitrogen Corporation, recombinant cells expressing the human histamine H1 receptor) were incubated at 37° C. for 30 minutes in the presence of the test compounds dissolved in DMSO in a high glucose Dulbecco's Modified Eagle Medium (GlutaMAX, containing 10% fetal bovine serum, 100 μM nonessential amino acids, 25 mM HEPES, 100 U/mL penicillin, and 100 μg/mL streptomycin), and histamine was added such that the final concentration became 30 nM, followed by further incubation for 4.5 hours. Then, a mixture of LiveBLAzer™ FRET-B/G Loading Kit (Invitrogen Corporation) and Solution D (Invitrogen Corporation) was added, followed by leaving to stand at room temperature for 2 hours under shaded conditions. Thereafter, the fluorescence intensity was measured under two conditions of 400 nm/460 nm and 400 nm/535 nm (excitation light/fluorescence) by using a multilabel counter (EnVision: PerkinElmer Inc.). The 50% inhibitory concentration (IC50 value) was calculated in accordance with (measured value−blank measured value at 400 nm/460 nm)/(measured value−blank measured value at 400 nm/535 nm) of each test sample.

Assay [4] has as its target T2, human histamine H4 receptor. The assay can be described thus: Evaluation of H4 Receptor Function ([35S]GTPγS binding). As to conditions: [35S]GTPγS binding, CHO-K1 membrane, 0.1 μM histamine; read-out: Evaluation of H4 Receptor Function (IC50 value, antagonistic effect). It counts as biochemical. As to the method:
The antagonistic effect was evaluated by the method described below. Membrane preparation from recombinant CHO-K1 cell expressing the human histamine H4 receptor (PerkinElmer Inc.), 10 μM GDP, 0.1 μM histamine, and the compounds dissolved in DMSO were reacted at 30° C. for 20 minutes in a buffering solution containing 20 mM HEPES, pH 7.4, 100 mM NaCl, 10 mM MgCl2, 1 mM DTT, and 1 mM EDTA on an assay plate. Thereafter, SPA beads (Amersham plc) were added, followed by incubation for 60 minutes, and further 0.3 nM [^35S]GTPγS (PerkinElmer Inc.) was added, followed by incubation for 30 minutes.
(In general: Binding of GTPγS marks nucleotide exchange on a G protein.)

T2 sequence (Q9H3N8 whole entry): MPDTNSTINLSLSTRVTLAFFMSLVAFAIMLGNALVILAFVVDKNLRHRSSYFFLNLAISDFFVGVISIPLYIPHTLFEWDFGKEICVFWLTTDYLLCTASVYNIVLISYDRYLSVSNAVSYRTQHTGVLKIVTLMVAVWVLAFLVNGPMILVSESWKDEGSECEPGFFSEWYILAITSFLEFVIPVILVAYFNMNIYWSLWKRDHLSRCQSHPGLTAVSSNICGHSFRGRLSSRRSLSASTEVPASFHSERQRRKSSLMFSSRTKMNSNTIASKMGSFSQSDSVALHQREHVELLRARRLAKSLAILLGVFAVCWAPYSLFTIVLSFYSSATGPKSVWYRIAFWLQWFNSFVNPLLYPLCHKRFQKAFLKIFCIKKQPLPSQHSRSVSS
T1 sequence (P35367 whole entry): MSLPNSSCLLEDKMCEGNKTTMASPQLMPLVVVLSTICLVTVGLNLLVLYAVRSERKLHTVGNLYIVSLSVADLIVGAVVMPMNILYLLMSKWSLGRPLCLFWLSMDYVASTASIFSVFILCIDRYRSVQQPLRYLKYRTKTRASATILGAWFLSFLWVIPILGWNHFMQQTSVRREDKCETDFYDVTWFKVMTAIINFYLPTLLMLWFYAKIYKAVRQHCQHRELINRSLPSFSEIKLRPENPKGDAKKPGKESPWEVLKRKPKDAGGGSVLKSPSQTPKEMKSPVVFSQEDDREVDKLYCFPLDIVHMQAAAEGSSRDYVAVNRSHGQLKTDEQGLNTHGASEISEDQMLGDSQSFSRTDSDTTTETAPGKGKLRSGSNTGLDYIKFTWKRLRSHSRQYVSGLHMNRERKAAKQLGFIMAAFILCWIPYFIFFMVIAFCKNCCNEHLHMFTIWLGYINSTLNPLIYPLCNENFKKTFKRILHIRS

In the case of `Nc1nc2c(c(N3CCN(CCOCc4cccc(C(=O)O)c4)CC3)n1)CCc1cc(OCc3ccc(Cl)cc3)ccc1-2` [15(b), 3-((2-(4-(2-amino-8-((4-chlorobenzyl)oxy)-5,6-dihydrobenzo[h]quinazolin-4-yl)piperazin-1-yl)ethoxy)methyl)benzoic acid], the Ki in assay [1] and in assay [2] was under 0.1 µM throughout. In addition, the IC50 in assay [3] was under 0.2 µM; in assay [4], 0.2 to 2 µM.
On to `Nc1nc2c(c(N3CCN(CCOCc4cccc(C(=O)O)c4)CC3)n1)CCc1cc(OCc3ccc(OC(F)(F)F)cc3)ccc1-2` [16(b), 3-((2-(4-(2-amino-8-((4-(trifluoromethoxy)benzyl)oxy)-5,6-dihydrobenzo[h]quinazolin-4-yl)piperazin-1-yl)ethoxy)methyl)benzoic acid], for which the Ki in assay [1] and in assay [2] was under 0.1 µM in each case. For the same molecule, the IC50 is under 0.2 µM in assay [3] and 0.2 to 2 µM in assay [4].
For the molecule `Nc1nc2c(c(N3CCN(CCOCc4ccc(F)c(C(=O)O)c4)CC3)n1)CCc1cc(OCc3ccc(Cl)cc3)ccc1-2` [17(b), 5-((2-(4-(2-amino-8-((4-chlorobenzyl)oxy)-5,6-dihydrobenzo[h]quinazolin-4-yl)piperazin-1-yl)ethoxy)methyl)-2-fluorobenzoic acid], the Ki in assay [1] and in assay [2] was under 0.1 µM each time. The half-inhibitory concentration (IC50) in assay [3] was under 0.2 µM; in assay [4], 0.2 to 2 µM.
As for `Nc1nc2c(c(N3CCN(CCOCc4cccc(C(=O)O)n4)CC3)n1)CCc1cc(OCc3ccc(Cl)cc3)ccc1-2` [18(b), 6-((2-(4-(2-amino-8-((4-chlorobenzyl)oxy)-5,6-dihydrobenzo[h]quinazolin-4-yl)piperazin-1-yl)ethoxy)methyl)picolinic acid bis(trifluoroacetate)], the Ki in assay [1] and in assay [2] was under 0.1 µM throughout. Moreover, the IC50 in assay [3] is under 0.2 µM; in assay [4], 0.2 to 2 µM.
On to `Nc1nc2c(c(N3CCN(CCOc4ccc(C(=O)O)cc4)CC3)n1)CCc1cc(OCc3ccc(Cl)cc3)ccc1-2` [19(b), 4-(2-(4-(2-amino-8-((4-chlorobenzyl)oxy)-5,6-dihydrobenzo[h]quinazolin-4-yl)piperazin-1-yl)ethoxy)benzoic acid], for which the Ki in assay [1] is 0.1 to 0.5 µM; in assay [2] it was under 0.1 µM. Further, the figures for the concentration for half-maximal inhibition (IC50) in assay [3] and in assay [4] were 0.2 to 2 µM and under 0.2 µM, respectively.
The like results for `Nc1nc2c(c(N3CCN(CCOCc4ccc(C(=O)O)o4)CC3)n1)CCc1cc(OCc3ccc(OC(F)(F)F)cc3)ccc1-2` [20(b), 5-((2-(4-(2-amino-8-((4-(trifluoromethoxy)benzyl)oxy)-5,6-dihydrobenzo[h]quinazolin-4-yl)piperazin-1-yl)ethoxy)methyl)furan-2-carboxylic acid] were, in that order, under 0.1 µM, under 0.1 µM, under 0.2 µM and 0.2 to 2 µM.
In the case of `Nc1nc2c(c(N3CCN(CCO[C@H]4C[C@@H](C(=O)O)C4)CC3)n1)CCc1cc(OCc3ccc(OC(F)(F)F)cc3)ccc1-2` [23(b), cis-3-(2-(4-(2-amino-8-((4-(trifluoromethoxy)benzyl)oxy)-5,6-dihydrobenzo[h]quinazolin-4-yl)piperazin-1-yl)ethoxy)cyclobutane-1-carboxylic acid], the Ki in assay [1] and in assay [2] was under 0.1 µM throughout. The IC50 in assay [3] and in assay [4] was under 0.2 µM each time.
On to `Nc1nc2c(c(N3CCN(CCOCc4ccc(C(=O)O)o4)CC3)n1)CCc1cc(OCc3ccc(Cl)cc3)ccc1-2` [127(b), 5-((2-(4-(2-amino-8-((4-chlorobenzyl)oxy)-5,6-dihydrobenzo[h]quinazolin-4-yl)piperazin-1-yl)ethoxy)methyl)furan-2-carboxylic acid], for which the Ki in assay [1] is under 0.1 µM; in assay [2], 0.1 to 0.5 µM. Moreover, the IC50 in assay [3] was under 0.2 µM; in assay [4], 0.2 to 2 µM.
